Source: patent US20150010498A1, “Immunocytokines for Cancer Treatment in Combination with Chemotherapeutic Agents” (Philogen S.p.A., priority 2007, published 2015)

Tests used:
[1] = test system: MDA-MB-231 human breast cancer cells; test: Therapy of MDA-MB231 human breast cancer model implanted in nude mice (tumor growth); type: in vivo, Balb/c nude female mice; details: 4 mg/kg versus 1 mg/kg doxorubicin i.v.; FIG. 5
Protocol: Tumor-bearing mice were obtained by injecting 2*10̂7 MDA-MB-231 human breast cancer cells s.c. in 10- to 12-week old Balb/c nude female mice (Charles River Laboratories). Mice were grouped (n=5) 9 days after tumor cell implantation when tumors were clearly palpable and injected i.v. in the lateral tail vein with saline, 20 μg F16-IL2 (corresponding to 6.6 μg IL2), 6.6 μg recombinant IL2 (Proleukin®, and 4 mg/kg or 1 mg/kg Doxorubicin in a maximum volume of 250 μl. Mice were monitored daily and tumor growth was measured three times weekly with a caliper using the following formula: volume=length×width2×0.5. Animals were sacrificed when tumors reached a volume >2000 mm3 or when tumors became necrotic according to Swiss regulations and under a project license granted by the
Veterinäramt des Kantons Zürich (198/2005). Tumor sizes are expressed as mean±SE.
Tumor-bearing mice produced in the same way were injected i.v. in the lateral tail vein with saline, 20 μg F16-IL2 (corresponding to 6.6 μg IL2), and 1 mg/kg or 5 mg/kg taxol™ in a maximum volume of 250 μl. Mice were monitored and tumor growth measured as described above.

[2] = test system: tubulin; details: compared with paclitaxel; cited from earlier work
[3] = test system: MDA-MB-231 human breast cancer cells; test: Biodistribution of radioiodinated F16-IL2 after doxorubicin pre-injection; type: in vivo, Balb/c nude female mice; details: radioiodinated F16-IL2 i.v., sacrifice 24 h after injection; 10 mg/kg doxorubicin i.v. 8 days, 24 h or 2 h before; FIGS. 1 to 4
Protocol: The in vivo targeting performance was evaluated by biodistribution analysis. Tumor-bearing mice were obtained by injecting 10̂7 MDA-MB-231 human breast cancer cells s.c. in 10- to 12-week old Balb/c nude female mice (Charles River Laboratories). Mice were grouped (n≧5) when tumors were clearly palpable and injected i.v. in the lateral tail vein with 10 mg/kg doxorubicin 8 days, 24 h or 2 h prior to biodistribution. The control group was exempted from doxorubicin administration. Purified F16-IL2 was radioiodinated and injected into the lateral tail vein of all mice. Mice were sacrificed 24 h after injection (12.5 μg, 3.3 μCi per mouse). Organs were weighed and radioactivity was counted with a Packard Cobra gamma counter. Radioactivity content of representative organs was expressed as the percentage of the injected dose per gram of tissue (%ID/g).

With COc1cccc2c1C(=O)c1c(O)c3c(c(O)c1C2=O)C[C@@](O)(C(=O)CO)C[C@@H]3OC1CC(N)C(O)C(C)O1 (stereo partly drawn) [doxorubicin, (8S, 10S)-10-(4-amino-5-hydroxy-6-methyl-tetrahydro-2H-pyran-2-yloxy)-6,8,11-trihydroxy-8-(2-hydroxyacetyl)-1-methoxy-7,8,9,10-tetrahydrotetracene-5,12-dione] the “effect of doxorubicin dose on efficacy” value [1] was “higher doses of doxorubicin were even more effective than low doses”.

For A-nor-paclitaxel, the “tubulin-assembly activity relative to paclitaxel” value [2] is listed as “only three times less than that of paclitaxel”.

With “F16-IL2: antibody-IL2 conjugate: interleukin 2 conjugated to the anti-tenascin-C antibody 4A1-F16 (VH SEQ ID NO. 2, VL SEQ ID NO. 4)” the “tumor targeting of the immunocytokine (biodistribution, %ID/g)” value [3] was “does not impair the tumor targeting”.
